From patent US7838463B2, “Safeners based on acrylic-aliphatic carboxylic acid derivatives” (Bayer CropScience AG, priority 2003, dated 2010) come the findings set out here.

Common to all, as to type: in vivo
Assay [1] concerns Zea mays (corn), cv. 'Lorenzo'. In words: Pre-emergence application of herbicide H1 (isoxaflutole) and safener by the tank mix method: crop damage. To be noted: safener 250 g a.i./ha + herbicide H1 (isoxaflutole) 100 g a.i./ha, pre-emergence tank mix; for Safener action as % damage reduction in crop plants: ZEAMA, versus herbicide alone; for % damage in ZEAMA: visual scoring four weeks after application, 0%=no effect, 100%=plant dies. As to the method:
(§1) Seeds of various crop plants and weed species were sown in sandy loam soil in round plastic pots of a diameter of 13 cm and covered with a layer of sandy loam of a thickness of about 1 cm. Herbicides and safeners in the form of liquid (for example emulsion concentrates) or dry (for example water-dispersible powders) formulations were diluted with deionized water to the required concentrations and applied to the surface of the soil with a spray bar using a water application rate of 300 liters per hectare. In the experiment shown below, the safeners were used as 20 percent strength water-dispersible powders and the herbicide isoxaflutole was used as an aqueous suspension concentrate (see table 1.1.1). The pots were placed in a greenhouse under favorable growth conditions. Visual scoring of the herbicidal action was carried out four weeks after the herbicide application. Evaluation was carried out on a percentage basis by comparison with untreated control plants (0%=no noticeable effect compared with the untreated plant, 100%=treated plant dies).

The subject of the next assay is Chenopodium album. Description: Pre-emergence application of herbicide H1 (isoxaflutole) and safener by the tank mix method: herbicidal action. To be noted: safener 250 g a.i./ha + herbicide H1 (isoxaflutole) 100 g a.i./ha, pre-emergence tank mix; four weeks. How it is done:
as §1

The test system of assay [2] is Zea mays (corn), cv. 'Lorenzo'. In words: Post-emergence application of herbicide H2 (foramsulfuron) and safener by the tank mix method: crop damage. To be noted: safener 250 g a.i./ha + herbicide H2 (foramsulfuron) 40 g a.i./ha, post-emergence tank mix; for Safener action as % damage reduction in crop plants: ZEAMA, versus herbicide alone; for % damage in ZEAMA: visual scoring four weeks after application. From the text: (§2) Seeds of various crop plants and weed species were sown in sandy loam soil in round plastic pots of a diameter of 13 cm and covered with a layer of sandy loam of a thickness of about 1 cm. The pots were placed in a greenhouse under favorable growth conditions for a period of about two to three weeks, allowing the plants to reach a growth stage of 2 to 4 leaves. The herbicides in the form of liquid (for example emulsion concentrates) or dry (for example water-dispersible powders) formulations were mixed with a standard additive (based on rapeseed oil methyl ester), diluted with deionized water to the required concentrations and applied to the green parts of the plants and the uncovered part of the soil surface with a spray bar using a water application rate of 300 liters per hectare. In the experiment shown below, safener and the herbicide foramsulfuron were in each case used as 20 percent strength water-dispersible powder (results see table 1.2.1). The pots were placed in a greenhouse under favorable growth conditions. Visual scoring of the herbicidal action was carried out four weeks after the herbicide application. Evaluation was carried out on a percentage basis by comparison with untreated control plants (0%=no noticeable effect compared with the untreated plant, 100%=treated plant dies).

The next assay has as its system Amaranthus retroflexus. In words: Post-emergence application of herbicide H2 (foramsulfuron) and safener by the tank mix method: herbicidal action. Conditions: safener 250 g a.i./ha + herbicide H2 (foramsulfuron) 40 g a.i./ha, post-emergence tank mix; four weeks.
From the text: as §2

The next assay has as its system Setaria viridis. Described as above. To be noted: safener 250 g a.i./ha + herbicide H2 (foramsulfuron) 40 g a.i./ha, post-emergence tank mix; four weeks.
From the text: as §2

Assay [3] concerns Glycine max (soybean), cv. 'Lambert'. Description: Pre-emergence application of herbicide H1 (isoxaflutole) after seed dressing with safener. To be noted: seed dressing with safener 1 g a.i./kg of seed; for Safener action as % damage reduction in crop plants: GLXMA, herbicide H1 (isoxaflutole) 100 g a.i./ha pre-emergence, versus untreated seed; for % damage in GLXMA: then herbicide H1 (isoxaflutole) 100 g a.i./ha pre-emergence, four weeks. How it is done: (§3) The number of crop plant seeds required for each application rate of safener was calculated. Sufficient seeds were weighed-out into glass bottles having a screw-on lid. The volume of the glass bottles was approximately twice that of the seeds weighed out.
(§4) The safeners were formulated as 20 percent strength water-dispersible powders. These formulations were weighed out to give the required application rates (g of a.i./kg of seed). The samples were added to the seed in the glass containers, and sufficient water to form a suitable seed dressing was then added. The glass bottles were closed and then mounted in an overhead shaker (which turns the bottles at moderate speed for a period of up to one hour) so that the seeds were uniformly covered with the seed dressing. The bottles were opened and the seed was ready for use in pre-emergence or post-emergence experiments, as described below.
(§5) The seeds which had been treated with safeners and untreated seeds as controls were sown in sandy loam soil in round plastic pots of a diameter of 13 cm and covered with a layer of sandy loam of a thickness of about 1 cm. The herbicides in the form of liquid (for example emulsion concentrates) or dry (for example water-dispersible powders) formulations were diluted with deionized water to the required concentrations and applied to the surface of the soil with a spray bar using a water application rate of 300 liters per hectare. In the two experiments shown below (results see tables 2.2.1 and 2.2.2), the herbicide isoxaflutole was used as an aqueous suspension concentrate.
(§6) The pots were placed in a greenhouse under favorable growth conditions. Visual scoring of the herbicidal action was carried out four weeks after the herbicide application. Evaluation was carried out on a percentage basis by comparison with untreated control plants (0%=no noticeable effect compared with the untreated plant, 100%=treated plant dies).

Assay [4] relates to Zea mays (corn), cv. 'Lorenzo'. The description is as above. Conditions: seed dressing with safener 1 g a.i./kg of seed; for Safener action as % damage reduction in crop plants: ZEAMA, herbicide H1 (isoxaflutole) 100 g a.i./ha pre-emergence, versus untreated seed; for % damage in ZEAMA: then herbicide H1 (isoxaflutole) 100 g a.i./ha pre-emergence, four weeks. How it is done:
as §3, §4, §5, §6

Assay [5] concerns Zea mays (corn), cv. 'Lorenzo'. Description: Post-emergence application of herbicide H2 (foramsulfuron) after seed dressing with safener. Conditions: seed dressing with safener 1 g a.i./kg of seed; for Safener action as % damage reduction in crop plants: ZEAMA, herbicide H2 (foramsulfuron) 40 g a.i./ha post-emergence, versus untreated seed; for % damage in ZEAMA: then herbicide H2 (foramsulfuron) 40 g a.i./ha post-emergence, four weeks. How it is done:
The number of crop plant seeds required for each application rate of safener was calculated. Sufficient seeds were weighed-out into glass bottles having a screw-on lid. The volume of the glass bottles was approximately twice that of the seeds weighed out. The safeners were formulated as 20 percent strength water-dispersible powders. These formulations were weighed out to give the required application rates (g of a.i./kg of seed). The samples were added to the seed in the glass containers, and sufficient water to form a suitable seed dressing was then added. The glass bottles were closed and then mounted in an overhead shaker (which turns the bottles at moderate speed for a period of up to one hour) so that the seeds were uniformly covered with the seed dressing. The bottles were opened and the seed was ready for use in pre-emergence or post-emergence experiments, as described below. The seeds treated with safener and untreated seeds were sown in sandy loam soil in round plastic pots of a diameter of 13 cm and covered with a layer of sandy loam of a thickness of about 1 cm. The pots were placed in a greenhouse under favorable growth conditions for a period of about two to three weeks, allowing the plants to reach a growth stage of 2 to 4 leaves. The herbicides in the form of liquid (for example emulsion concentrates) or dry (for example water-dispersible powders) formulations were mixed with a standard additive (based on rapeseed oil methyl ester), diluted with deionized water to the required concentrations and applied to the green parts of the plants and the uncovered part of the soil surface with a spray bar using a water application rate of 300 liters per hectare. In the experiment shown below, the herbicide foramsulfuron was used as 20 percent strength water-dispersible powder (results see table 2.3.1). The pots were placed in a greenhouse under favorable growth conditions. Visual scoring of the herbicidal action was carried out four weeks after the herbicide application. Evaluation was carried out on a percentage basis by comparison with untreated control plants (0%=no noticeable effect compared with the untreated plant, 100%=treated plant dies).

On to `O=C(O)C=Cc1ccccc1O` [Comp. 17, 2-hydroxycinnamic acid], for which the “Safener action as % damage reduction in crop plants” value was found to be 82% in assay [1]; 78% in assay [2]; 60% in assay [3]; 68% in assay [4]; 81% in assay [5]. For the same compound, the “% damage in ZEAMA” value was found to be 5% in assay [1], 8% in assay [2], 8% in assay [4] and 6% in assay [5]. Also, in the assay with Chenopodium album, the “Herbicidal action as % damage in CHEAL” value was found to be 94%. In the assay on Amaranthus retroflexus, the “Herbicidal action as % damage in AMARE” value is listed as 94%. For the same compound, the “Herbicidal action as % damage in SETVI” value in the assay on Setaria viridis is recorded as 98%. In assay [3], the “% damage in GLXMA” value stood at 33%.
In the case of `O=C(O)C=Cc1ccc(Cl)cc1Cl` [Comp. 155, 2,4-dichlorocinnamic acid], the “Safener action as % damage reduction in crop plants” value in assay [1] is reported as 74%; in assay [2] it was 83%; in assay [3] it was 64%; in assay [4], 72%; in assay [5], 88%. Further, the “% damage in ZEAMA” value came out at 7% in assay [1], 6% in assay [2], 7% in assay [4] and 4% in assay [5]. Moreover, in the assay on Chenopodium album, the “Herbicidal action as % damage in CHEAL” value was 95%. The “Herbicidal action as % damage in AMARE” value in the assay with Amaranthus retroflexus stood at 98%. The “Herbicidal action as % damage in SETVI” value in the assay on Setaria viridis worked out at 95%. Moreover, the “% damage in GLXMA” value in assay [3] is 30%.
